Numbers after ± are expanded uncertainties.
Legend:
[1] = Crystal; DSC
[2] = Molar enthalpy of transition or fusion; details: Crystal; DSC

Which Triple point temperature [1] does the source give for `O=C(c1ccccc1)c1ccccc1` [benzophenone] here?
The Triple point temperature was 323.4 ± 2.1 K.

And the “Molar enthalpy of transition or fusion” value [2]?
The value was 4.21 ± 0.311 kcal/mol.
